Data reported in patent publication US9956293B2, “Targeted therapeutics” (Madrigal Pharmaceuticals, Inc., priority 2014, dated 2018).

Tests used:
[1] = Tissue distribution of SDC-TRAPs in tumor-bearing mice: plasma, tumor, heart (Examples 14-15); conditions: mouse, in vivo
HER2 = HER2 degradation assay with BT-474 cell line (Example 12, FACS); type: cell-based; conditions: Homo sapiens; BT-474 cells

| IC50 (HER2) [nM] | SMILES | further results |
| --- | --- | --- |
| > 5000 | CCNC(=O)c1nnc(-c2cc(C(C)C)c(O)cc2O)n1-c1ccc(C(=O)N[C@@H](C)C(=O)Nc2cccc3c2CN(C2CCC(=O)NC2=O)C3=O)cc1 (stereo partly drawn) [SDC-TRAP-0166, 5-(2,4-dihydroxy-5-isopropylphenyl)-4-(4-(((2S)-1-((2-(2,6-dioxopiperidin-3-yl)-1-oxoisoindolin-4-yl)amino)-1-oxopropan-2-yl)carbamoyl)phenyl)-N-ethyl-4H-1,2,4-triazole-3-carboxamide] |  |
| 3950 | CCNC(=O)c1nnc(-c2cc(C(C)C)c(O)cc2O)n1-c1ccc(C(=O)N[C@H](C(=O)Nc2cccc3c2CN(C2CCC(=O)NC2=O)C3=O)C(C)C)cc1 (stereo partly drawn) [SDC-TRAP-0188, 5-(2,4-dihydroxy-5-isopropylphenyl)-4-(4-(((2S)-1-((2-(2,6-dioxopiperidin-3-yl)-1-oxoisoindolin-4-yl)amino)-3-methyl-1-oxobutan-2-yl)carbamoyl)phenyl)-N-ethyl-4H-1,2,4-triazole-3-carboxamide] |  |
| 1090 | CCNC(=O)c1nnc(-c2cc(C(C)C)c(O)cc2O)n1-c1ccc(C(=O)N[C@@H](CC(C)C)C(=O)Nc2cccc3c2CN(C2CCC(=O)NC2=O)C3=O)cc1 (stereo partly drawn) [SDC-TRAP-0189, 5-(2,4-dihydroxy-5-isopropylphenyl)-4-(4-(((2S)-1-((2-(2,6-dioxopiperidin-3-yl)-1-oxoisoindolin-4-yl)amino)-4-methyl-1-oxopentan-2-yl)carbamoyl)phenyl)-N-ethyl-4H-1,2,4-triazole-3-carboxamide] |  |
| > 5000 | CCNC(=O)c1nnc(-c2cc(C(C)C)c(O)cc2O)n1-c1ccc(C(=O)N2CCC[C@H]2C(=O)Nc2cccc3c2CN(C2CCC(=O)NC2=O)C3=O)cc1 (stereo partly drawn) [SDC-TRAP-0190, 5-(2,4-dihydroxy-5-isopropylphenyl)-4-(4-((2S)-2-((2-(2,6-dioxopiperidin-3-yl)-1-oxoisoindolin-4-yl)carbamoyl)pyrrolidine-1-carbonyl)phenyl)-N-ethyl-4H-1,2,4-triazole-3-carboxamide] |  |
| 1180 | CCNC(=O)c1nnc(-c2cc(C(C)C)c(O)cc2O)n1-c1ccc(Oc2ccc(C(=O)N[C@@H](CC(C)C)C(=O)Nc3cccc4c3CN(C3CCC(=O)NC3=O)C4=O)cc2)cc1 (stereo partly drawn) [SDC-TRAP-0191, 5-(2,4-dihydroxy-5-isopropylphenyl)-4-(4-(4-(((2S)-1-((2-(2,6-dioxopiperidin-3-yl)-1-oxoisoindolin-4-yl)amino)-4-methyl-1-oxopentan-2-yl)carbamoyl)phenoxy)phenyl)-N-ethyl-4H-1,2,4-triazole-3-carboxamide] |  |
| > 5000 | CCNC(=O)c1nnc(-c2cc(C(C)C)c(O)cc2O)n1-c1ccc(Oc2ccc(C(=O)N3CCC[C@H]3C(=O)Nc3cccc4c3CN(C3CCC(=O)NC3=O)C4=O)cc2)cc1 (stereo partly drawn) [SDC-TRAP-0192, 5-(2,4-dihydroxy-5-isopropylphenyl)-4-(4-(4-((2S)-2-((2-(2,6-dioxopiperidin-3-yl)-1-oxoisoindolin-4-yl)carbamoyl)pyrrolidine-1-carbonyl)phenoxy)phenyl)-N-ethyl-4H-1,2,4-triazole-3-carboxamide] |  |
| 266 | CCNC(=O)c1nnc(-c2cc(C(C)C)c(O)cc2O)n1-c1ccc(CN2CCC(C(=O)N[C@@H](CC(C)C)C(=O)Nc3cccc4c3CN(C3CCC(=O)NC3=O)C4=O)CC2)cc1 (stereo partly drawn) [SDC-TRAP-0193, 1-(4-(3-(2,4-dihydroxy-5-isopropylphenyl)-5-(ethylcarbamoyl)-4H-1,2,4-triazol-4-yl)benzyl)-N-((2S)-1-((2-(2,6-dioxopiperidin-3-yl)-1-oxoisoindolin-4-yl)amino)-4-methyl-1-oxopentan-2-yl)piperidine-4-carboxamide] |  |

More lines, now with the values behind:

| SMILES | IC50 (HER2) [nM] | further results |
| --- | --- | --- |
| CCc1c2c(nc3ccc(OC(=O)N4CCN(c5ccc(-n6c(O)nnc6-c6cc(C(C)C)c(O)cc6O)cc5)CC4)cc13)-c1cc3c(c(=O)n1C2)COC(=O)C3(O)CC (stereo not shown) [SDC-TRAP-0045, 4,11-diethyl-4-hydroxy-3,14-dioxo-3,4,12,14-tetrahydro-1H-pyrano[3′,4′:6,7]indolizino[1,2-b]quinolin-9-yl 4-(4-(3-(2,4-dihydroxy-5-isopropylphenyl)-5-hydroxy-4H-1,2,4-triazol-4-yl)phenyl)piperazine-1-carboxylate] |  | Kp at 6 h [1]: 1.35; Kp at 12 h [1]: 8.02; Kp at […] [1]: 0.00624; concentration at 6 h [1]: 1880 nM; concentration at 12 h [1]: 141 nM; concentration at 24 h [1]: 11.3 nM |
| CC(C)c1cc(-c2nnc(O)n2-c2ccc(CN3CCN(c4cnc(C(=O)Nc5cccc6c5CN(C5CCC(=O)NC5=O)C6=O)cn4)CC3)c(F)c2)c(O)cc1O (stereo not shown) [SDC-TRAP-0170, 5-(4-(4-(3-(2,4-dihydroxy-5-isopropylphenyl)-5-hydroxy-4H-1,2,4-triazol-4-yl)-2-fluorobenzyl)piperazin-1-yl)-N-(2-(2,6-dioxopiperidin-3-yl)-1-oxoisoindolin-4-yl)pyrazine-2-carboxamide] | 296 |  |
| CC(C)c1cc(-c2nnc(O)n2-c2ccc(CN3CCN(C(=O)c4ccc(COC(=O)Nc5cccc6c5CN(C5CCC(=O)NC5=O)C6=O)cc4F)CC3)c(F)c2)c(O)cc1O (stereo not shown) [SDC-TRAP-0174, 4-(4-(4-(3-(2,4-dihydroxy-5-isopropylphenyl)-5-hydroxy-4H-1,2,4-triazol-4-yl)-2-fluorobenzyl)piperazine-1-carbonyl)-3-fluorobenzyl (2-(2,6-dioxopiperidin-3-yl)-1-oxoisoindolin-4-yl)carbamate] | 693 |  |
| CC(C)c1cc(-c2nnc(O)n2-c2ccc(N3CCN(C(=O)c4ccc(COC(=O)Nc5cccc6c5CN(C5CCC(=O)NC5=O)C6=O)cc4)CC3)nc2)c(O)cc1O (stereo not shown) [SDC-TRAP-0175, 4-(4-(5-(3-(2,4-dihydroxy-5-isopropylphenyl)-5-hydroxy-4H-1,2,4-triazol-4-yl)pyridin-2-yl)piperazine-1-carbonyl)benzyl (2-(2,6-dioxopiperidin-3-yl)-1-oxoisoindolin-4-yl)carbamate] | 2630 |  |
| CCNC(=O)c1nnc(-c2cc(C(C)C)c(O)cc2O)n1-c1ccc(C(=O)N2CCN(C(=O)c3ccc(COC(=O)Nc4cccc5c4CN(C4CCC(=O)NC4=O)C5=O)cc3)CC2)cc1 (stereo not shown) [SDC-TRAP-0177, 4-(4-(4-(3-(2,4-dihydroxy-5-isopropylphenyl)-5-(ethylcarbamoyl)-4H-1,2,4-triazol-4-yl)benzoyl)piperazine-1-carbonyl)benzyl (2-(2,6-dioxopiperidin-3-yl)-1-oxoisoindolin-4-yl)carbamate] | 4350 |  |
| CC(C)c1cc(-c2nnc(O)n2-c2ccc(CN3CCN(C(=O)Cc4ccc(COC(=O)Nc5cccc6c5CN(C5CCC(=O)NC5=O)C6=O)cc4)CC3)c(F)c2)c(O)cc1O (stereo not shown) [SDC-TRAP-0194, 4-(2-(4-(4-(3-(2,4-dihydroxy-5-isopropylphenyl)-5-hydroxy-4H-1,2,4-triazol-4-yl)-2-fluorobenzyl)piperazin-1-yl)-2-oxoethyl)benzyl (2-(2,6-dioxopiperidin-3-yl)-1-oxoisoindolin-4-yl)carbamate] | 2120 |  |
| CCNC(=O)c1nnc(-c2cc(C(C)C)c(O)cc2O)n1-c1ccc(CN2CCC(C(=O)N(C)CCCOC(=O)Nc3cccc4c3CN(C3CCC(=O)NC3=O)C4=O)CC2)cc1 (stereo not shown) [SDC-TRAP-0231, 3-(1-(4-(3-(2,4-dihydroxy-5-isopropylphenyl)-5-(ethylcarbamoyl)-4H-1,2,4-triazol-4-yl)benzyl)-N-methylpiperidine-4-carboxamido)propyl (2-(2,6-dioxopiperidin-3-yl)-1-oxoisoindolin-4-yl)carbamate] | 696 |  |
